Assay results: paper PMC11096368, “Transcriptomic signature, bioactivity and safety of a non-hepatotoxic analgesic generating AM404 in the midbrain PAG region” (Scientific Reports, 2024)
Entries after “also recorded” stand apart in the source; their conditions may differ. Where two headings read alike, the source gives them in different places.

Experiments:
[1] = test system: Salmonella typhimurium strains TA98, TA100, TA1535, TA1537, and E. coli WP2 uvrA; assay: Ames bacterial reverse mutation assay; type: cell-based, Escherichia coli
Experimental: SRP-001 was tested to evaluate its mutagenic potential by measuring its ability to induce reverse mutations at selected loci of several strains of Salmonella typhimurium (S. typhimurium) and at the tryptophan locus of Escherichia coli (E. coli) strain WP2 uvrA in the presence and absence of an exogenous metabolic activation system (Bioreliance, Rockville, MD USA). Dimethyl sulfoxide (10% DMSO) was used as the vehicle. The dose levels tested in the preliminary toxicity assay were 6.67, 10.0, 33.3, 66.7, 100, 333, 667, 1000, 3333, and 5000 µg per plate. No precipitate was observed. […] The dose levels tested in the mutagenicity assay were 100, 333, 667, 1000, 3333, and 5000 µg per plate.

[2] = test system: Peripheral blood reticulocytes; assay: In vivo mammalian micronucleus assay; set-up: species or system rats
Experimental: Male rats were dosed at 500, 1000, and 2000 mg/kg/d once per day on two consecutive days at 10 mL/kg via oral gavage using 10% labrasol, 10% DMSO, and 80% PEG400 as the vehicle (Bioreliance, Rockville, MD USA). Approximately 48 h after the second dose administration, peripheral blood was collected for flow cytometric analysis of micronuclei. There was no significant increase in the incidence of micronuclei in the test article-dosed animals compared to the concurrent vehicle control. The vehicle control value was compatible with the historical range of % micronucleated reticulocytes (MnRETs). There was a statistically significant increase in MnRETs in the positive control compared to the concurrent vehicle control.

[3] = test system: FAAH, CORO2A, and RPL7L1 expression; assay: Single-cell RNA sequencing of midbrain PAG in the CFA model; type: in vivo; details: 100 mg/kg, 1 h, CFA rats
Experimental: Subsequently, we endeavored to explore the single-cell transcriptome of the eVF rat mid-brain PAG region to further define the mechanisms of action (MOA) of chronic inflammatory pain and, ultimately, SRP-001- and ApAP-mediated pain modulation. Left hind paws of Sprague Dawley rats were injected with 150 µl of 50% complete Freund’s adjuvant (CFA), freshly diluted with sterile saline on the day of administration, to induce conspicuous long-standing inflammatory pain in the rats’ hind paws, along with mechanical hyperalgesia tested using eVF.to induce local inflammation and a chronic pain state. We dosed the rats with ApAP or SRP-001 (100 mg/kg), and after 1 h, they were euthanized to dissect the PAG from flash-frozen brains for 10xGenomics single-nuclei RNA library preparation (Fig. 4a).
For cell nuclei isolation from the midbrain PAG, they were flash-frozen, dissected (by a cryotome), minced into small pieces, homogenized, filtered through 70 μ strainer and centrifuged. ReadiDrop 7-AAD cell viability dye (Bio-Rad) added, and flow sorted the live (7-AAD positive) nuclei in a BioRad Cell Sorter S3e using purity mode. Nuclei were counted using Nexcelom automated Cellometer with acridine orange/propidium iodide (AOPI) stain, and the Nuclei Stock Concentration used so that 10,000 nuclei could be targeted for each sample. […]

[4] = 7-day repeat-dose oral toxicity and toxicokinetic study, Phase II (non-GLP); type: in vivo; details: both sexes, Beagle, dog, in vivo, 300 mg/kg/day, 30, 100, 300 mg/kg/d, days 1 and 7
Experimental: (§1) In Phase II of this study, 0, 30, 100, or 300 mg/kg/d of SRP-001 was administered once daily for seven consecutive days to 1 Beagle dog/sex/dose (Calvert Labs/Altasciences, Scott Township, PA USA). Mortality/morbidity was observed twice daily and once prior to scheduled sacrifice. Clinical observations were evaluated prior to each dose administration and at approximately 1–3 h post-dose and once prior to scheduled sacrifice on day 8. Body weights were recorded on days 1 and 7, and a fasted body weight was recorded prior to scheduled sacrifice on day 8. Food consumption was recorded daily. Blood for evaluation of hematology, coagulation, and clinical chemistry parameters and urine for urinalysis was collected from all animals prior to treatment initiation and from all Phase II animals prior to scheduled sacrifice on day 8. Blood for toxicokinetic evaluation was collected at selected time points on days 1 and 7. Selected tissues were harvested and weighed at necropsy. No microscopic evaluations were performed. […] The clinical observations corroborated with findings of red discoloration in the duodenum of the control group female, the jejunum of the low-dose male, and the colon of both high-dose dogs.
(§2) The reason for this is unclear; however, it may be due to a low sample size (n = 2 per dose group). Half-lives ranged from approximately 1 to 3.5 h and increased with dose and time. […] Based on these observations, SRP-001 was considered to be tolerated at 300 mg/kg when administered once daily for 7 consecutive days. Our toxicokinetic analysis indicates elevated systemic exposures to SRP-001 on Day 1 relative to Day 7. […] A plausible mechanistic explanation for this observed decrease is the induction of metabolic enzymes, likely involving UGT and potentially CYP3A enzymes, as elaborated above and substantiated by previous research. […] The NOAEL exposure parameters align well with the highest SAD dose in the Phase 1 trial, reinforcing the drug's safety profile. The observed PK decrease is not attributed to emesis but likely to enzymatic induction and will be the subject for future investigation.

beagle dogs = assay: as above; type: in vivo
Experimental: as §1, §2

[5] = Toxicokinetics following IV & PO dosing; type: in vivo, dog; details: beagle dogs
Text: Supplementary Fig. 19. Toxicokinetic (TK) beagle dog data.

dog = assay: Maximum tolerated dose study, single dose (non-GLP); type: in vivo
Experimental: To determine the appropriate doses, maximum tolerated dose studies (non-GLP) were conducted prior to the definitive GLP systemic toxicity studies. SRP-001 was evaluated by a full battery of GLP-compliant toxicity studies. Systemic toxicity was evaluated in Sprague–Dawley rats and Beagle dogs by oral administration over 28 days (Supplementary Fig. 19 and Supplementary Table 2). Importantly, no treatment-related adverse effects were seen during 28 days of daily oral doses of SRP-001 in rats at doses up to 1500 mg/kg/day or in dogs at doses up to 330 mg/kg/day.

CD-1 male mice = details: for Mortality by 72 h: oral gavage, n = 10
Experimental: This analysis was critical for robustly comparing their toxic effects, with a particular focus on mortality at equivalent molar concentrations.
CD-1 male mice obtained from Charles River Laboratories underwent a one-week acclimation period. They were housed under a 12-h day/night cycle, with unrestricted access to food and water. Before experimentation, mice were fasted for 15 h. […] Each treatment group consisted of 10 mice. Post-dosing, the mice were monitored at 6-h intervals over 72 h for signs of becoming moribund. An investigator blinded to the treatment groups conducted the moribund state assessment.

Structure (SMILES)	Dose with toxicity (reduction in the revertant count) ([1]; preliminary toxicity assay, tester strains TA1537 and WP2 uvrA, absence of S9) [µg per plate]	Mutagenic response (reverse mutations) ([1]; up to 5000 µg per plate, presence or absence of S9 activation)	Micronucleus assay result ([2]; 500, 1000, 2000 mg/kg/day, 2 days, oral gavage)	% RETs (reticulocytes) ([2]; treatment groups versus vehicle)	Expression of FAAH, CORO2A, and RPL7L1 in PAG (scRNAseq) [3]	Tmax [4] [h]	half-life ([4]; read-out: Half-lives) [h]	AUC and Cmax levels versus dose (beagle dogs; dog, in vivo)	Body weight, food consumption, hematology, clinical chemistry, coagulation parameters (beagle dogs; dog, in vivo)	Clinical signs (beagle dogs; dog, in vivo)	Dose considered to be tolerated (beagle dogs; once daily for 7 consecutive days) [mg/kg]	Exposure versus dose [5]	Time of Cmax [5] [min]	Single doses that did not result in any mortality (dog) [mg/kg]	Mortality by 72 h (CD-1 male mice; 1984 (ApAP 300 mg/kg))	Mortality by 72 h (CD-1 male mice; 3969 (ApAP 600 mg/kg))	Mortality by 72 h (CD-1 male mice; 5954 (ApAP 900 mg/kg))	Mortality within 72 h (CD-1 male mice; increasing equimolar doses, highest mortality reached) [%]
CCN(CC)C(=O)c1ccccc1S(=O)(=O)NCC(=O)Nc1ccc(O)cc1 [SRP-001, N,N-diethyl-2-[[2-(4-hydroxyanilino)-2-oxo-ethyl]sulfamoyl]benzamide]	5000	negative; also recorded: No positive mutagenic responses; also recorded: No positive mutagenic responses were observed with any of the tester strains in either the presence or absence of S9 activation	negative (non-clastogenic); also recorded: Under the conditions of this study, the administration of SRP-001 at doses up to and including a dose of 2000 mg/kg/day was concluded to be negative in the Micronucleus assay	Statistically significant decreases	Downregulation	0.5 to 1.5	1 to 3.5	increased in a dose-dependent manner	No SRP-001-related differences	loose or soft feces and emesis	300	dose-dependent response	15 to 30	≤ 1200				
CC(=O)Nc1ccc(O)cc1 [ApAP, acetaminophen, reference compound]															1/10	3/10	7/10	70
